Data on six molecules can be found in article PMC7946679, “Selective cytotoxicity of epidithiodiketopiperazine DC1149B, produced by marine-derived Trichoderma lixii on the cancer cells adapted to glucose starvation” (Journal of Natural Medicines, 2019).

Molecules are shown by their SMILES. In brackets after ≈: the same amount, converted by molar mass.

Series [1] has as its system human pancreatic carcinoma PANC-1 cells. Put plainly: Cytotoxicity (WST-8) against PANC-1 cells in Glucose Deficient or General Glucose Medium. Type of series: cell-based. The settings on record: for IC50: Homo sapiens; for IC50 / IC50 Glucose (−): PANC-1 cells, 12 h with sample, WST-8; for S.I. (Selective index): IC50 General Glucose Medium versus IC50 Glucose Deficient Medium, PANC-1. As to the method:
Human pancreatic carcinoma cell line PANC-1 was maintained in the DMEM supplemented with heat-inactivated 10% FBS and kanamycin (50 µg/ml) in a humidified atmosphere with 5% CO2 at 37 °C. To induce nutrient starvation, PANC-1 cells were cultured in the Glucose Deficient Medium [Basal Medium (25 mM HEPES buffer (pH 7.4) supplemented with 6.4 g/l NaCl, 700 mg/l NaHCO3, 400 mg/l KCl, 265 mg/l CaCl2·2H2O, 200 mg/l MgSO4·7H2O, 125 mg/l NaH2PO4, 0.1 mg/l Fe(NO3)·9H2O, 15 mg/l Phenol red, 10 mL/l MEM vitamin solution (X100) (GIBCO, Carlsbad, CA), 200 mmol/l L-glutamine solution (GIBCO, Carlsbad, CA), and 25 mg/l kanamycin) containing 10% dialyzed FBS]. The General Glucose Medium [Basal Medium supplemented with 10% FBS and […] glucose (final 25 mM)] was also used for control cells.
The bioassay was carried out according to a method described previously. Briefly, PANC-1 cells (1 × 10^4 cells/100 µl in 96 well plastic plate) were pre-incubated in the DMEM supplemented with 10% FBS for 24 h. The medium was then replaced with either the General Glucose Medium or Glucose Deficient Medium to induce cells adaption to the nutrient starvation. After 12-h incubation, the serially diluted samples were added, and the cells were incubated for an additional 12 h in a humidified atmosphere with 5% CO2 at 37 °C. The cell proliferation was detected using the WST-8 colorimetric reagent. The IC50 value was determined by linear interpolation from the growth inhibition curve. We assessed the selectivity of the cytotoxic activity (Selective Index, S.I.) based on the difference in the IC50 values obtained for experiments with General Glucose Media and Glucose Deficient Media.
Background: Formazan colour is commonly taken as a measure of viable cells.

The test system of the next series is GRP78. In words: Western blotting, induction of GRP78 in PANC-1 cells. The series is classed as cell-based, human. The settings on record: PANC-1 in Glucose Deficient Medium, lowest test concentration 0.02 µM, 12 h, western blot. As for the experimental part: (§1) PANC-1 cells (3 × 10^5 cells/2 ml in 6-well plastic plate) were pre-incubated in the DMEM supplement with 10% FBS for 24 h. The medium was then replaced with either General Glucose or Glucose Deficient Medium. […] Subsequently, the cells were rinsed with ice-cold PBS and lysed in the lysis buffer [50 mM Tris–HCl (pH 8.0) containing 150 mM NaCl, 5 mM EDTA, 1% glycerol, 1% NP-40, 1% protease inhibitor cocktail, and 1% phosphatase inhibitor cocktail]. The cell lysate was analyzed by SDS-PAGE and transferred onto PVDF membranes (GE Healthcare Life Sciences Buckinghamshire, UK). The membranes were then incubated with appropriate primary antibodies followed by HRP-conjugated secondary antibodies, and the immunopositive bands were visualized using an ECL kit (GE Healthcare Life Sciences). The luminescent signals were analyzed using an Image Quant LAS4010 Scanner (GE Healthcare Life Sciences).

The test system of series [2] is Akt and phosphorylated Akt. In words: Western blotting, Akt signaling in PANC-1 cells. Type of series: cell-based, human. As to conditions: PANC-1 in Glucose Deficient Medium, 0.02–0.3 µM, 12 h, western blot. As to the method: as §1
On the technique in general: In western blotting, separated proteins are transferred to a membrane and probed.

Another series has as its target mitochondrial Complex I (Bos taurus, UniProt P03887+P17694+P42026). Put plainly: biochemical. As to conditions: mitochondrial electron transport chain.
A further series deals with T1, mitochondrial Complex II (Bos taurus, UniProt P31039+P35720+Q3T189+Q95123).
T1 construct: purchased Cayman Chemical
In words: Mito Check Complex Activity Assay Kit, complex II. Type of series: biochemical. As to conditions: mitochondrial electron transport chain. The text has this: (§2) Dulbecco’s Modified Eagle’s medium (DMEM), WST-8 colorimetric reagent, and KCN were purchased from Nacalai Tesque, Inc. (Kyoto, Japan). Fetal bovine serum (FBS) and Dialyzed FBS were purchased from Equitech-Bio Inc. (Kerrville, TX, USA) and Thermo Fisher Scientific Inc. (Waltham, MA, USA), respectively. Anti-Akt, Anti-phosphorylated Akt, anti-GRP78, and anti-β-actin antibodies were obtained from Cell Signaling Technology, Inc. (Danvers, MA, USA). Horseradish peroxidase (HRP)-linked anti-rabbit IgG antibody (GE Healthcare Life Sciences, Buckinghamshire, UK) was used as secondary antibody. Mito Check Complex Activity Assay Kit (Cayman Chemical, Ann Arbor, MI, USA) was used to evaluate the effect of compound 1 on the mitochondrial complex I–V. Oxygen consumption of cells was measured by Oxygen Consumption Rate (OCR) Assay Kit (Cayman Chemical, Ann Arbor, MI, USA). Rotenone, thenoyltrifluoroacetone (TTFA), carbonyl cyanide m-chlorophenylhydrazone (CCCP), antimycin A, and oligomycin A were obtained from Tokyo Chemical Industry Co., LTD. […]
(§3) Antimycin A is a known inhibitor of complex III in the mitochondrial electron transport chain [17]. […] We also evaluated the effect of compound 1 on the oxygen consumption of PANC-1 cells cultured in the Glucose Deficient Medium.

Series [3] concerns the target mitochondrial Complex II/III (Bos taurus, UniProt P00125+P00157+P13272). Put plainly: Mito Check Complex Activity Assay Kit, complex II/III. The series is classed as biochemical. As to conditions: mitochondrial electron transport chain.
From the text: as §2, §3

The target of another series is mitochondrial Complex IV (Bos taurus, UniProt P00396+P68530). Put plainly: Mito Check Complex Activity Assay Kit, complex IV. The series is classed as biochemical. As to conditions: mitochondrial electron transport chain.
From the text: as §2, §3

The next series deals with mitochondrial Complex V (Bos taurus, UniProt P00829+P00847+P19483+P32876). In words: Mito Check Complex Activity Assay Kit, complex V. The series is classed as biochemical. The settings on record: mitochondrial electron transport chain.
From the text: as §2, §3

The test system of another series is PANC-1 cells. Put plainly: Oxygen consumption rate of PANC-1 cells (OCR Assay Kit). The series is classed as cell-based, human. The settings on record: PANC-1 cells in General Glucose Medium, phosphorescent probe, 180 min. As for the experimental part:
Oxygen consumption rate of PANC-1 cells was assayed using OCR Assay Kit (Cayman Chemical, Ann Arbor, MI, USA) as per the manufacturer’s instructions. Briefly, pre-cultured PANC-1 cells (8.0 × 10^4 cells) in the black, clear bottom 96-well plate (Corning Incorporated, NY, USA) were incubated with General Glucose Medium for 18 h at 37 °C. The cells were replenished with 140 µl of fresh medium, and the test compound was added. This was followed by adding the phosphorescent probe to measure the oxygen consumption. 100 µl of mineral oil was added in each well to restrict oxygen diffusion. The signals were measured by an Infinite M1000 microplate reader (Tecan Group Ltd., Mannedorf, Switzerland) using time-resolved mode at Ex 380 nm and Em 650 nm for 180 min with 1-min time interval. The linear regression was applied after subtracting the blank, and the oxygen consumption rate was indicated by the slope of each signal profile.

Series [4] deals with rat adrenal pheochromocytoma cell line PC12. The settings on record: PC12 cells, cited from earlier work.
Series [5] has as its system human cervix epithelioid carcinoma HeLa cells. As to conditions: cited from earlier work.
The subject of series [6] is human leukemic Jurkat cell line. As to conditions: read-out: IC50 cytotoxicity Jurkat; cited from earlier work.

As usually defined, the IC50 is the midpoint of a concentration-inhibition curve.

T1 sequence (P31039 44-665): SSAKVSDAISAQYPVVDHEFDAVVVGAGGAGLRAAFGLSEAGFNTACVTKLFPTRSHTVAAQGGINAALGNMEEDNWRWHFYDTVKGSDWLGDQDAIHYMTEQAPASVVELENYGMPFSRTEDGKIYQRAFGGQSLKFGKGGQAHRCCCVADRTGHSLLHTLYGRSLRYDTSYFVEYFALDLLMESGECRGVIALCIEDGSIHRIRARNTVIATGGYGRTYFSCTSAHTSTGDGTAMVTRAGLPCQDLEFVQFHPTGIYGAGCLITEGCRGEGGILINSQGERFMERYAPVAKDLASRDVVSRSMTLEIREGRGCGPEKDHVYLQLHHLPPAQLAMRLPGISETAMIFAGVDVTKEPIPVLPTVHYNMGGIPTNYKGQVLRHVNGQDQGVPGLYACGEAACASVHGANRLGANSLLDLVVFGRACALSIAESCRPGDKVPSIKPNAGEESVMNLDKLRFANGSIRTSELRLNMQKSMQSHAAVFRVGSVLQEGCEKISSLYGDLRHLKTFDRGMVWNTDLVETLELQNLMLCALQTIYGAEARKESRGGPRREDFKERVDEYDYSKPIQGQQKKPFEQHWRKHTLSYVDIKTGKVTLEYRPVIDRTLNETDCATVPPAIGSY
T1 sequence (Q3T189 29-280): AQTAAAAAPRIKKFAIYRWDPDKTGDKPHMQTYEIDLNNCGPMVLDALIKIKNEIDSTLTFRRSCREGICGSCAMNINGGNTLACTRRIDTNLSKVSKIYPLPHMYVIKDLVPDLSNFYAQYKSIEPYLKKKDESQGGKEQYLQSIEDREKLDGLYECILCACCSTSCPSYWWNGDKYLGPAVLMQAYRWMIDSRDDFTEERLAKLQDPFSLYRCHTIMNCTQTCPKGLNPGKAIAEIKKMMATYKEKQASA
T1 sequence (P35720 30-169): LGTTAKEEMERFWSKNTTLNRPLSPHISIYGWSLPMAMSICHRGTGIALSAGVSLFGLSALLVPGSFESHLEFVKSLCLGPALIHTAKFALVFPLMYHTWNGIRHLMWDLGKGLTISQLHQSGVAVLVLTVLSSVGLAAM
T1 sequence (Q95123 56-158): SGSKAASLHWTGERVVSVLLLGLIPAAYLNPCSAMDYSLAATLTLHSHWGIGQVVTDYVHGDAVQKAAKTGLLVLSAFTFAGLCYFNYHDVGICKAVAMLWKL

Turning to `COc1ccc(C2SSC34CC5(O)C(Cl)C=CC(O)C5ON3C(=O)C2NC4=O)c(O)c1OC` (stereo not drawn) [Compound 1, DC1149B], the IC50 in [1] (General Glucose Medium) is 710 µM; in [1] (Glucose Deficient Medium), 0.02 µM; against mitochondrial Complex I, greater than 30 µM; at mitochondrial Complex II, 19 µM; in series [3], greater than 30 µM; at mitochondrial Complex IV, greater than 30 µM. The IC50 was greater than 30 µM on mitochondrial Complex V, 42.4 µM in series [4] (read-out: IC50 cytotoxic activity PC12), 97.1 µM in [5] (read-out: IC50 cytotoxic activity HeLa) and 5.1 µM in series [6]. In addition, in the series on GRP78, the “expression of GRP78” value was “decreased the expression of GRP78 in the nutrient-starved cells to the basal level”. Further, the “levels of Akt and phosphorylated Akt” value in series [2] is “reduced the levels of Akt and phosphorylated Akt in the nutrient-starved cells in a dose-dependent manner”. The “oxygen consumption of PANC-1 cells” value in the series on PANC-1 cells is “inhibited the oxygen consumption”. Moreover, the “IC50 cytotoxic activity PC12” value in [4] is 21.9 µg/mL (≈ 42.4 µM). Besides, the “IC50 cytotoxic activity HeLa” value in series [5] is 50.1 µg/mL (≈ 96.9 µM).
In series [1] (Glucose Deficient Medium), `CCCCCC[C@H]1C(=O)O[C@H](C)[C@H](NC(=O)c2cccc(NC=O)c2O)C(=O)O[C@@H](C)[C@@H]1OC(=O)CC(C)C` [Antimycin A, reference compound] returned an IC50 of 0.0003 µM. For the same molecule, in series [1], the “S.I. (Selective index)” value is 960,000. For the same molecule, in the series with PANC-1 cells, the “oxygen consumption of PANC-1 cells” value was “inhibited the oxygen consumption”.
Turning to `COc1ccc2cc(NC(=O)C34CC5(O)C(C=CC(O)C5ON3)S4)c(=O)oc2c1OC` (stereo not drawn) [Compound 3, aspergillazine A], the IC50 in series [1] (General Glucose Medium) and in [1] (Glucose Deficient Medium) was greater than 1000 µM in each case. Also, the “IC50 Glucose (−)” value in [1] (Glucose Deficient Medium) is “very weak”.
As to `COc1ccc2cc(NC(=O)C3=NO[C@H]4[C@H](O)C=C[C@@H](O)[C@@]4(O)C3)c(=O)oc2c1OC` [Compound 2, trichodermamide A], the IC50 in series [1] (General Glucose Medium) is greater than 1000 µM; in series [1] (Glucose Deficient Medium) it was 270 µM. In series [1], the “S.I. (Selective index)” value is given as greater than 3.7. In series [1] (Glucose Deficient Medium), the “IC50 Glucose (−)” value is “very weak”.
`N#CC(C#N)=NNc1cccc(Cl)c1` [CCCP, carbonyl cyanide m-chlorophenylhydrazone]: in the series on PANC-1 cells, the “oxygen consumption of PANC-1 cells” value was “showed the opposite effect to antimycin A”.
On to `O=C(CC(=O)C(F)(F)F)c1cccs1` [thenoyltrifluoroacetone, reference compound], for which the IC50 at mitochondrial Complex II is 65 µM.
